Experimental findings from patent US20100158858A1, “ADMINISTRATION OF CARBOLINE DERIVATIVES USEFUL IN THE TREATMENT OF CANCER AND OTHER DISEASES” (priority 2007, published 2010) are described below.

This data set concerns MCF-7 breast cancer cells transfected with the human aromatase gene. As to conditions: for Mean % Inhibition of Tumor Size vs Vehicle at Day 42 / Mean Tumor Size at Day 98 / Mice cured / Mice dead / Mice with Escape to 500 mm^3 / Percent of mice with cures: letrazole only. Here is the method: The relative effects of the aromatase inhibitor agent letrozole and a test compound of the present invention were evaluated, when administered alone or in combination, on the in vivo growth of MCF-7 breast cancer cells transfected with the human aromatase gene.
In this study, cells (7.0×10^6 cells/mouse) were implanted subcutaneously in female ovariectomized athymic nude mice (n=10). Androstenedione was administered (via slow-release pellets) as a source of […].
The daily dose was administered in a target volume of 0.1 mL, which was adjusted according to subject weight. The oral vehicle was L21 (a mixture of 35% Labrasol, 35% Labrafac, and 30% Solutol). Individual vehicle-treated mice were removed from study when the tumor reached 1500 mm^3. After 100 days of treatment, treatment was stopped.

[1] abbreviates: 10 μg/mouse orally once per day.
Where [2] appears, read: 30 μg/mouse orally once per day.

Like-named read-outs stand apart in the source and are kept apart here. Marks after values point to notes of the source that are not given here.

Take `N#Cc1ccc(C(c2ccc(C#N)cc2)n2cncn2)cc1` [letrozole]: under setting [1], the “Mean % Inhibition of Tumor Size vs Vehicle at Day 42” value is 72%, the “Mean Tumor Size at Day 98” value amounted to 225 mm^3, the Mice cured is recorded as 0 of 9 and the Mice dead is reported as 1. Also, under setting [1], the “Mice with Escape to 500 mm^3” value was 2 and the “Percent of mice with cures” value is recorded as 0% cured. In addition, under setting [2], the “Mean % Inhibition of Tumor Size vs Vehicle at Day 42” value came out at 91%**, the “Mean Tumor Size at Day 98” value is 146 mm^3, the Mice cured is listed as 2 of 9 and the Mice dead is 1. In addition, under setting [2], the “Mice with Escape to 500 mm^3” value came out at 0 and the “Percent of mice with cures” value was 22% cured. Moreover, under “letrozole (10 μg/mouse) alone”, the “Effect on tumor growth” value is given as “the tumors did not regress, tumor growth was prevented”. Also, where the note is “letrozole (30 μg/mouse) alone”, the “Effect on tumor growth” value is reported as “the tumors regressed” and the “Mice with cures (no measurable tumor) at Day 100” value is “two of the nine”.
